Experimental findings from patent US6203976A, “Methods of preparing compositions comprising chemicals capable of transcriptional modulation” (OSI Pharmaceuticals, Inc., priority 1994, dated 2001) are described below.

Read-outs that look alike come from different tables or passages of the source.

In data set [1] the test system is human G-CSF (G21) promoter. Briefly: High-throughput luciferase reporter assay, G-CSF promoter (Screen III). The note with it: G21 cells, 6 hours; for FOLD INHIBITION RELATIVE TO SOLVENT CONTROL, GCSF: Screen III inhibitors; for FOLD INDUCTION RELATIVE TO SOLVENT CONTROL, GCSF: Screen III activators. Background: A reporter such as luciferase makes a cellular process visible.

A further data set deals with MMTV (M10) promoter. Kind of data set: High-throughput luciferase reporter assay, MMTV promoter (Screen III). The data set is classed as cell-based, mouse. The conditions noted are these: for FOLD INDUCTION RELATIVE TO SOLVENT CONTROL, MMTV: Screen III activators. Here is the method: pMluci and pSV2Neo, an antibiotic resistance plasmid (112), were co-transfected into NIH/3T3 mouse fibroblast cells using the calcium phosphate precipitation method (103) with a commercially available kit (Pharmacia, Piscataway N.J.). Two days later, cells were transferred to media containing 0.4 mg/ml G418 and were grown for an additional 10-14 days. G418-resistant clones were isolated by standard methods. Once sufficient cell numbers were obtained, clones were analyzed based on several criteria: constitutive luciferase production, induction of luciferase expression by dexamethasone (1 μm, Sigma, St. Louis, Mo.), satisfactory attachment to microtiter plates used in the high-throughput screen and acceptable standard deviation in multiple luciferase expression assays (see below for assay protocol). This analysis was carried out using the luciferase assay conditions described above. Of the clones which satisfied the above criteria for the high throuphput screen, one clone, M10, was selected for use.

In data set [2] the test system is human growth hormone (532) promoter. Kind of data set: High-throughput luciferase reporter assay, human Growth Hormone promoter (Screen III). The data set is classed as cell-based. The conditions noted are these: for FOLD INDUCTION RELATIVE TO SOLVENT CONTROL, hGH: Screen III activators.
The mark [3] stands for this setting: Screen III inhibitors, M10 cells, 6 hours.
[4] abbreviates: Screen III inhibitors, 532 cells, 6 hours.

Take `O=C(O)CC1NC(=O)NC1=O` (stereo not drawn) [compound 630]: the “FOLD INHIBITION RELATIVE TO SOLVENT CONTROL, GCSF” value in data set [1] was determined as 0.70 fold. Besides, in the data set with MMTV (M10) promoter (setting [3]), the “FOLD INHIBITION RELATIVE TO SOLVENT CONTROL, MMTV” value is reported as 0.74 fold. Also, in data set [2] (setting [4]), the “FOLD INHIBITION RELATIVE TO SOLVENT CONTROL, hGH” value is 3.57 fold.

Turning to `Cc1ccc(N)c(S(=O)(=O)O)c1` [compound 1376], the “FOLD INDUCTION RELATIVE TO SOLVENT CONTROL, GCSF” value in data set [1] stood at 6.37 fold. In the data set with MMTV (M10) promoter (M10 cells, 6 hours), the “FOLD INDUCTION RELATIVE TO SOLVENT CONTROL, MMTV” value was found to be 1.32 fold. Besides, in data set [2] (532 cells, 6 hours), the “FOLD INDUCTION RELATIVE TO SOLVENT CONTROL, hGH” value came to 0.04 fold.

Turning to `O=C(c1ccccc1)c1ccc(Br)cc1` [compound 1705], the “FOLD INHIBITION RELATIVE TO SOLVENT CONTROL, GCSF” value in data set [1] was 0.54 fold. Moreover, the “FOLD INHIBITION RELATIVE TO SOLVENT CONTROL, MMTV” value in the data set on MMTV (M10) promoter (setting [3]) is given as 0.62 fold. The “FOLD INHIBITION RELATIVE TO SOLVENT CONTROL, hGH” value in data set [2] (setting [4]) is 14.28 fold.

As for `O=C(O)c1ccc2c3c(ncnc13)-c1ccccc1C2=O` [compound 378], in data set [1], the “FOLD INDUCTION RELATIVE TO SOLVENT CONTROL, GCSF” value was determined as 4.12 fold. Also, the “FOLD INDUCTION RELATIVE TO SOLVENT CONTROL, MMTV” value with MMTV (M10) promoter (M10 cells, 6 hours) is on record as 0.59 fold. In data set [2] (532 cells, 6 hours), the “FOLD INDUCTION RELATIVE TO SOLVENT CONTROL, hGH” value amounted to 0.26 fold.

For the compound `COc1cc2oc(=O)cc(CBr)c2cc1OC` [compound 2064], in data set [1], the “FOLD INDUCTION RELATIVE TO SOLVENT CONTROL, GCSF” value was found to be 0.82 fold. Further, the “FOLD INDUCTION RELATIVE TO SOLVENT CONTROL, MMTV” value in the data set with MMTV (M10) promoter (M10 cells, 6 hours) is 2.53 fold. The “FOLD INDUCTION RELATIVE TO SOLVENT CONTROL, hGH” value in data set [2] (532 cells, 6 hours) stood at 1.10 fold.

For `OCC1CC2C3CC(CO)C(C3)C2C1` (stereo not drawn) [compound 1678], the “FOLD INDUCTION RELATIVE TO SOLVENT CONTROL, GCSF” value in data set [1] stood at 0.36 fold. Besides, the “FOLD INDUCTION RELATIVE TO SOLVENT CONTROL, MMTV” value in the data set on MMTV (M10) promoter (M10 cells, 6 hours) was found to be 0.89 fold. Moreover, the “FOLD INDUCTION RELATIVE TO SOLVENT CONTROL, hGH” value in data set [2] (532 cells, 6 hours) was 7.08 fold.

As for `CC(=O)OCC(=O)[C@@]1(O)CC[C@H]2[C@@H]3CCC4=CC(=O)C=C[C@]4(C)[C@H]3[C@@H](O)C[C@@]21C` [compound 765], the “FOLD INDUCTION RELATIVE TO SOLVENT CONTROL, GCSF” value in data set [1] is 0.96 fold. Besides, the “FOLD INDUCTION RELATIVE TO SOLVENT CONTROL, MMTV” value in the data set on MMTV (M10) promoter (M10 cells, 6 hours) was determined as 2.66 fold. In data set [2] (532 cells, 6 hours), the “FOLD INDUCTION RELATIVE TO SOLVENT CONTROL, hGH” value is recorded as 1.30 fold.

For `Nc1ncnc2c1nc(Br)n2[C@@H]1O[C@H](CO)[C@@H](O)[C@H]1O` [compound 1583], the “FOLD INDUCTION RELATIVE TO SOLVENT CONTROL, GCSF” value in data set [1] is on record as 5.82 fold. Besides, in the data set with MMTV (M10) promoter (M10 cells, 6 hours), the “FOLD INDUCTION RELATIVE TO SOLVENT CONTROL, MMTV” value worked out at 0.88 fold. Moreover, in data set [2] (532 cells, 6 hours), the “FOLD INDUCTION RELATIVE TO SOLVENT CONTROL, hGH” value was 0.12 fold.

For `N=c1cc2oc3cc(N)ccc3nc-2c2ccccc12` [compound 1776], the “FOLD INDUCTION RELATIVE TO SOLVENT CONTROL, GCSF” value in data set [1] came out at 3.50 fold. Besides, the “FOLD INDUCTION RELATIVE TO SOLVENT CONTROL, MMTV” value in the data set with MMTV (M10) promoter (M10 cells, 6 hours) was found to be 1.36 fold. Besides, in data set [2] (532 cells, 6 hours), the “FOLD INDUCTION RELATIVE TO SOLVENT CONTROL, hGH” value was 0.15 fold.

For `NC(=O)N1c2ccccc2CCc2ccccc21` [compound 299], in data set [1], the “FOLD INDUCTION RELATIVE TO SOLVENT CONTROL, GCSF” value is given as 0.53 fold. Moreover, in the data set with MMTV (M10) promoter (M10 cells, 6 hours), the “FOLD INDUCTION RELATIVE TO SOLVENT CONTROL, MMTV” value came to 0.47 fold. In data set [2] (532 cells, 6 hours), the “FOLD INDUCTION RELATIVE TO SOLVENT CONTROL, hGH” value came out at 5.46 fold.

In the case of `Cc1c(C2(c3cc(Br)c(O)c(Br)c3C)OS(=O)(=O)c3ccccc32)cc(Br)c(O)c1Br` [compound 1251], in data set [1], the “FOLD INDUCTION RELATIVE TO SOLVENT CONTROL, GCSF” value is recorded as 0.14 fold. The “FOLD INDUCTION RELATIVE TO SOLVENT CONTROL, MMTV” value with MMTV (M10) promoter (M10 cells, 6 hours) is recorded as 0.33 fold. Further, the “FOLD INDUCTION RELATIVE TO SOLVENT CONTROL, hGH” value in data set [2] (532 cells, 6 hours) was determined as 15.19 fold.

Consider `N=c1ccc2nc3ccc(N)cc3sc-2c1` [compound 836], for which the “FOLD INDUCTION RELATIVE TO SOLVENT CONTROL, GCSF” value in data set [1] was 3.20 fold. The “FOLD INDUCTION RELATIVE TO SOLVENT CONTROL, MMTV” value in the data set on MMTV (M10) promoter (M10 cells, 6 hours) came to 0.58 fold. Moreover, the “FOLD INDUCTION RELATIVE TO SOLVENT CONTROL, hGH” value in data set [2] (532 cells, 6 hours) is 0.23 fold.

In the case of `Nc1nc(N)nc(N)n1` [compound 364], the “FOLD INDUCTION RELATIVE TO SOLVENT CONTROL, GCSF” value in data set [1] was found to be 3.67 fold. In addition, in the data set with MMTV (M10) promoter (M10 cells, 6 hours), the “FOLD INDUCTION RELATIVE TO SOLVENT CONTROL, MMTV” value was 1.07 fold. Besides, the “FOLD INDUCTION RELATIVE TO SOLVENT CONTROL, hGH” value in data set [2] (532 cells, 6 hours) is 1.18 fold.

Turning to `C[C@]12C=CC(=O)C=C1CC[C@@H]1[C@@H]2[C@@H](O)C[C@@]2(C)[C@H]1CC[C@]2(O)C(=O)CO` [compound 764], the “FOLD INHIBITION RELATIVE TO SOLVENT CONTROL, MMTV” value in the data set with MMTV (M10) promoter is 0.59. The “FOLD INHIBITION RELATIVE TO SOLVENT CONTROL, hGH” value in data set [2] is 4.54.

In the case of `OCc1cccc(Cl)c1` [compound 2121], the “FOLD INHIBITION RELATIVE TO SOLVENT CONTROL, MMTV” value in the data set on MMTV (M10) promoter (setting [3]) amounted to 1.14 fold. Also, in data set [2] (setting [4]), the “FOLD INHIBITION RELATIVE TO SOLVENT CONTROL, hGH” value is given as 0.40 fold.

Turning to `Cc1n[nH]cc1Br` [compound 2082], in the data set on MMTV (M10) promoter (setting [3]), the “FOLD INHIBITION RELATIVE TO SOLVENT CONTROL, MMTV” value worked out at 1.23 fold. Besides, in data set [2] (setting [4]), the “FOLD INHIBITION RELATIVE TO SOLVENT CONTROL, hGH” value is on record as 0.65 fold.

As to `O=c1c(O)c(-c2ccc(O)cc2O)oc2cc(O)cc(O)c12` [compound 371], the “FOLD INHIBITION RELATIVE TO SOLVENT CONTROL, MMTV” value in the data set with MMTV (M10) promoter (setting [3]) turned out to be 0.89 fold. Moreover, the “FOLD INHIBITION RELATIVE TO SOLVENT CONTROL, hGH” value in data set [2] (setting [4]) was 0.41 fold.

`NC(=O)c1ccccc1O` [compound 798]: the “FOLD INHIBITION RELATIVE TO SOLVENT CONTROL, MMTV” value in the data set with MMTV (M10) promoter (setting [3]) was found to be 0.68 fold. For the same compound, in data set [2] (setting [4]), the “FOLD INHIBITION RELATIVE TO SOLVENT CONTROL, hGH” value is given as 0.90 fold.

As to `ClCCCCCBr` [compound 2097], in the data set with MMTV (M10) promoter (M10 cells, 6 hours), the “FOLD INDUCTION RELATIVE TO SOLVENT CONTROL, MMTV” value is 1.22 fold. Moreover, the “FOLD INDUCTION RELATIVE TO SOLVENT CONTROL, hGH” value in data set [2] (532 cells, 6 hours) is listed as 0.88 fold.
